Assay: Skin PAMPA (Parallel Artificial Membrane Permeability Assay) permeation from a cosmetic formulation
Type: in vitro ADME
Details: for Mean amount per ml acceptor liquid: 0.05% in formulation, no penetration enhancer; for Modulation (%) of penetration / increase of permeation / Modulation (%) of penetration: 3% 1,2-pentanediol (Hydrolite-5); for Penetration behaviour compared with DhAvn D: absence of a penetration enhancer, FIG. 1
Description: The permeation of Avn A from a cosmetic formulation across a stratum corneum-mimicking artificial membrane was evaluated using the Skin PAMPA™ (Parallel Artificial Membrane Permeability Assay) model.
The primary penetration barrier of the skin, the stratum corneum (SC), consists of corneocytes embedded in extracellular lipids. The lipid mixture of the Skin PAMPA™ membrane consists of similar quantities of certramides (synthetic ceramide analogues), stearic acid and cholesterol as the SC. The Skin PAMPA™ sandwich consists of two 96-well plates, wherein one plate is formed so as to sit precisely under the plate that contains a porous lipid-impregnated filter. The wells of the bottom plate were filled with formulation, and the wells of the top plate were filled with acceptor solution. The plates were then stacked and incubated. The Skin PAMPA™ model has been used to evaluate semi-solid formulations and found to correlate well with ex vivo permeation studies.
(§1) Heat Phase A and B separately to 70° C.; disperse Phase C in B; add Phase BC to Phase A and emulsify using an ULTRA TURRAX® stirrer (2 minutes); allow to cool by using a vane stirrer; add Phase D for neutralising. The formulation was prepared in bulk. The active substances were pre-dissolved in the corresponding additives and were added to the formulation (15 minutes stirring with a vane stirrer).
180 ml of buffer was mixed with 20 ml ethanol (buffer: 20 mmol/l citric acid, pH 5.5); 0.84 g of anhydrous citric acid was dissolved in approximately 180 g of water; the pH was adjusted to 5.5 using a 30% sodium hydroxide solution; following pH adjustment, the solution was filled up with water to 200 g.
After 240 minutes, approximately 180 μl of each Skin PAMPA™ sample was transferred into an HPLC micro-vial.
Equipment: an Agilent HP 1100 connected to a Waters Empower 3 SR3
Column: a Waters XBridge® C18, 3.5 μm, 3.0×50 mm
Column temperature: 30° C. Mobile phase A: water+0.1% formic acid Mobile phase B: methanol Flow: 1.02 ml/min Injection volume: 25 μl
The permeation of Avn L from a cosmetic formulation across a stratum corneum-mimicking artificial membrane was evaluated as described above using the Skin PAMPA™ (Parallel Artificial Membrane Permeability Assay) model.
The permeation of Avn B from a cosmetic formulation across a stratum corneum-mimicking artificial membrane was evaluated as described above using the Skin PAMPA™ (Parallel Artificial Membrane Permeability Assay) model.
Unlike Examples 1 and 2, acceptor solution samples for HPLC analysis of each Skin PAMPA™ sample were this time taken after just 120 minutes.
(§2) The skin permeation of Avn A, Avn B, Avn C and Avn L in comparison to dihydroavenanthramide D (DhAvn D) from a cosmetic formulation across a stratum corneum-mimicking artificial membrane was evaluated as described above using the Skin PAMPA™ (Parallel Artificial Membrane Permeability Assay) model.
as §1, with “glycerine or water or mixtures thereof” for “the corresponding additives”
After 60, 120 and 240 minutes, approximately 180 μl of each Skin PAMPA™ sample was transferred into an HPLC micro-vial and analysed by HPLC.
as §2, with “The” for “The skin”, “of” for “of Avn A, Avn B, Avn C and”, “formulation in the presence of 3% 1,2-pentanediol” for “formulation”

SMILES | Mean amount per ml acceptor liquid (0 min) [μg per ml] | Mean amount per ml acceptor liquid (60 min) [μg per ml] | Mean amount per ml acceptor liquid (120 min) [μg per ml] | Mean amount per ml acceptor liquid (240 min) [μg per ml] | Increase of permeation (2% Hydrolite-6 (1,2-hexanediol), 240 min) [%] | Modulation (%) of penetration / increase of permeation (240 min) [%] | Increase of permeation (5% Hydrolite-5 (1,2-pentanediol), 240 min) [%] | Penetration behaviour compared with DhAvn D | Increase of permeation (1% Hydrolite-6 (1,2-hexanediol), Example 3, samples taken after 120 minutes) [%] | Increase of permeation (1% SymDiol 68 (1:1 1,2-hexanediol and 1,2-octanediol), Example 3, samples taken after 120 minutes) [%] | Increase of permeation (2% Hydrolite-6 (1,2-hexanediol), Example 3, samples taken after 120 minutes) [%] | Increase of permeation (1% Hydrolite-6 (1,2-hexanediol), 240 min) [%] | Modulation (%) of penetration (60 min) [%] | Modulation (%) of penetration (120 min) [%]
O=C(C=Cc1ccc(O)cc1)Nc1ccc(O)cc1C(=O)O [Avn A, N-(4′-hydroxycinnamoyl)-5-hydroxyanthranilic acid] | 0 | 0.069 | 0.188 | 0.319 | 46 | 19 | 59 | weaker penetration behaviour than dehydroavenanthramide D (DhAvn D) | – | – | – | – | – | –
COc1cc(C=CC(=O)Nc2ccc(O)cc2C(=O)O)ccc1O [Avn B, N-(4′-hydroxy-3′-methoxycinnamoyl)-5-hydroxyanthranilic acid] | 0 | 0.038 | 0.063 | 0.154 | – | – | – | weaker penetration behaviour than dehydroavenanthramide D (DhAvn D) | 62 | 87 | 76 | – | – | –
O=C(C=Cc1ccc(O)c(O)c1)Nc1ccc(O)cc1C(=O)O [Avn C, N-(3′-4′-dihydroxycinnamoyl)-5-hydroxyanthranilic acid] | 0 | 0.321 | 0.532 | 1.098 | – | – | – | penetrates better than dehydroavenanthramide D (DhAvn D) | – | – | – | – | – | –
O=C(/C=C/C=C/c1ccc(O)cc1)Nc1ccc(O)cc1C(=O)O [Avn L] | 0 | 0 | 0.000 | 0.030 | – | 125 | – | weaker penetration behaviour than dehydroavenanthramide D (DhAvn D) | – | – | – | 160 | – | –
O=C(CCc1ccc(O)cc1)Nc1ccccc1C(=O)O [Dihydroavenanthramide D, 2-(3-(4-hydroxyphenyl-)propanoyl-)amidobenzoic acid, reference compound] | 0.000 | 0.225 | 0.288 | 0.750 | – | 57 | – | – | – | – | – | – | −2 | 58

Source: patent US20230118435A1, “COMPOSITION COMPRISING AN AVENANTHRAMIDE WITH IMPROVED SKIN PENETRATION” (priority 2020, published 2023)
